“And” between values parts separate entries of the source, which are not always exact repeats. Equal entries are not always repeated. Some results are limits rather than exact numbers.

Assay [1] concerns Staphylococcus aureus NCTC 4163. In words: In vitro photodynamic inactivation of planktonic cells, 470 nm LED. In kind it is cell-based. How it is done: (§1) In the first experiment, the main goal was to determine whether the tested compounds were antimicrobially active with or without light. Two compounds (2 and 3) were tested in the visible range, and a 470 nm LED lamp was applied (Figure 11). Due to poor solubility and low absorption, curcumin was not included in the tests. A screening study was carried out on three strains: Gram-positive bacteria—Staphylococcus aureus NCTC 4163, Gram-negative bacteria—Escherichia coli ATCC 25922, and the yeast Candida albicans ATCC 10231. In the study, the irradiation lasted 30 min, and the lamp was placed 10 mm above the microtiter plate containing the bacterial suspensions and tested compounds at concentrations of 10 μM. The preincubation time (PIT) lasted 20 min, and the LED lamp emitted visible light (λmax 470 nm) with an irradiance of 16.67 mW/cm^2, which corresponds to a light dose (fluence) of 30.01 J/cm^2 after 30 min of exposure. The light exposure conditions (lamp distance, lamp power, and lamp type) were the same in all subsequent experiments. The light dose depended on the irradiation time. […] Compound 3 presented activity against both G+ (S. aureus) and G− (E. coli) bacteria. The light-induced antimicrobial activity against S. aureus and E.coli exceeded log reductions of 5.54 and 4.46, respectively. At these concentrations, not even a single colony was observed on the plates, as complete eradication occurred.
(§2) The second experiment was designed to determine the time and concentration required to achieve the biological effect observed in the first experiment and to extend the study to other strains (Figure 12). Apart from S. aureus and E. coli, the Gram-positive Streptococcus pyogenes ATCC 19615, which is the etiologic agent of tonsillitis, and the Gram-negative Pseudomonas aeruginosa NCTC 6749, which is a major threat to hospitalized and immunocompromised patients due to its high antibiotic resistance, were used. The observed effect was strictly concentration-dependent (Table 6). According to the results, Gram-positive bacteria appear to be the most susceptible to the applied photocytotoxicity study. […] For S. pyogenes, the results were even more pronounced, as the complete eradication under the influence of compound 3 at a concentration of 10 µM occurred after only 5 min of irradiation, while at a concentration of 1 µM, complete eradication occurred after 15 min of irradiation. Interesting results were also obtained for Gram-negative bacteria. […] A high level of eradication of P. aeruginosa in the presence of compound 3 (10 µM) was observed after only 5 min of irradiation (log reduction: 4.29). […] Reductions in microbial survival were still observed with a decrease in compound concentration, but complete eradication was not achieved within the irradiation time.
(§3) The microorganisms used in the study were (i) standard strains of bacteria: Staphylococcus aureus NCTC 4163, Escherichia coli ATCC 25922, Pseudomonas aeruginosa NCTC 6749, and Streptococcus […] ATCC 19615, and (ii) fungi: Candida albicans ATCC 10231. The standard strains were obtained from the National Collection of Type Cultures (NCTC, Salisbury, UK) and the American Type Culture Collection (ATCC, Manassas, VA, USA). Bacterial and yeast strains were stored in Microbank cryogenic vials (Pro-Lab Diagnostics, Richmond Hill, ON, Canada) at −70 °C ± 10 °C. The bacteria were cultured aerobically in brain–heart infusion (BHI) broth (OXOID, Basingstoke, UK) at 36 °C ± 1 °C for 20 h. C. albicans cultures were grown in Sabouraud dextrose broth (SDB, Merck, Steinheim, Germany) at 36 °C for 20 h.
(§4) The organisms were harvested by centrifugation (3000× g for 15 min) and resuspended in 1.5 mL of 10 mM PBS, pH, 7.0 (Sigma-Aldrich, St. Louis, MO, USA). The cells were then diluted 1/100 in PBS to a final concentration of about 10^7 colony-forming units (CFUs)/mL. […]

Assay [2] deals with Escherichia coli ATCC 25922. The assay is described as above. In kind it is cell-based. The method, then:
as §1, §2, §3, §4

The test system of assay [3] is Candida albicans ATCC 10231. The assay is described as above. The class given is cell-based. The conditions noted are these: 10 µM. How it is done: as §1
The microorganisms used in the study were (i) standard strains of bacteria: Staphylococcus aureus NCTC 4163, Escherichia coli ATCC 25922, Pseudomonas aeruginosa NCTC 6749, and Streptococcus […] ATCC 19615, and (ii) fungi: Candida albicans ATCC 10231. The standard strains were obtained from the National Collection of Type Cultures (NCTC, Salisbury, UK) and the American Type Culture Collection (ATCC, Manassas, VA, USA). […]
The organisms were harvested by centrifugation (3000× g for 15 min) and resuspended in 1.5 mL of 10 mM PBS, pH, 7.0 (Sigma-Aldrich, St. Louis, MO, USA). […] Viable microorganisms were measured by counting the number of colony-forming units (CFUs) after appropriate serial dilution and culture on tryptic soy agar plates (TSA, OXOID, Basingstoke, UK) or Columbia Blood Agar with Sheep Blood (CAS, OXOID, Basingstoke, UK) for bacteria and Sabouraud dextrose agar (SDA, Merck, Steinheim, Germany) for fungi, following incubation at 36 °C ± 1 °C for 24–72 h. The number of surviving organisms and the log10 reduction in microbial cells for each sample were calculated using a formula available in the literature.
(§5) Lamp type—LED λmax~470 nm (LIU470A LED Array Light Source; Thorlabs Inc., Bergkirchen, Germany); irradiance—16.67 mW/cm^2 (measured with PM16-130 Power Meter, Thorlabs Inc., Bergkirchen, Germany, and Optel Opole Sp. z o.o., Opole, Poland).

The test system of assay [4] is Pseudomonas aeruginosa NCTC 6749. The description is as above. The class given is cell-based.
Text: as §2, §3
The organisms were harvested by centrifugation (3000× g for 15 min) and resuspended in 1.5 mL of 10 mM PBS, pH, 7.0 (Sigma-Aldrich, St. Louis, MO, USA). The cells were then diluted 1/100 in PBS to a final concentration of about 10^7 colony-forming units (CFUs)/mL. Aliquots (100 μL) of a standardized microbial suspension were placed in the wells of microtiter plates, and an equal volume of a solution of the tested compound was added to give final concentrations of 1 × 10^−5 (10 µM) and 1 × 10^−6 M (1 µM) (groups P+). Negative control wells contained the bacterial or yeast suspension and PBS without the photosensitizer (groups P−). All the samples were incubated in the dark for 20 min and irradiated by the LED panel at a distance of 10 mm for a specific period, depending on the experiment (groups L+). To evaluate the antimicrobial activity of the tested compounds, duplicate experimental samples were prepared but not irradiated (groups L−). Viable microorganisms were measured by counting the number of colony-forming units (CFUs) after appropriate serial dilution and culture on tryptic soy agar plates (TSA, OXOID, Basingstoke, UK) or Columbia Blood Agar with Sheep Blood (CAS, OXOID, Basingstoke, UK) for bacteria and Sabouraud dextrose agar (SDA, Merck, Steinheim, Germany) for fungi, following incubation at 36 °C ± 1 °C for 24–72 h. The number of surviving organisms and the log10 reduction in microbial cells for each sample were calculated using a formula available in the literature.
as §5

Assay [5] relates to WM266-4 melanoma cell line. Set-up: method as in Siwak et al. 49. Conditions: after 96 h of incubation; ref Siwak et al. 49; cited from earlier work.
Assay [6] has as its system C. albicans. More on the design: method as in PMID 22934533. Conditions: 80 µM curcumin, 37.5 J/cm^2; mouse model of oral candidiasis; cited from earlier work.
The mark [7] stands for this setting: L+P+, 10 µM, 470 nm, 30 min, 30.01 J/cm^2.
[8] abbreviates: L+P+, 470 nm, 30 min, 30.01 J/cm^2.
Setting [9] is: 1 µM, 15 min irradiation 470 nm.
Setting [10] is: 10 µM, 5 min irradiation 470 nm (5 J/cm^2).
The mark [11] stands for this setting: 10 µM, 15 min irradiation 470 nm (15 J/cm^2).
[12] abbreviates: 1 µM, 25 min irradiation 470 nm.
The mark [13] stands for this setting: 10 µM, 25 min irradiation 470 nm (25 J/cm^2).

With `F[B-]1(F)OC(/C=C/c2ccc(OCCN3CCOCC3)cc2)=CC(/C=C/c2ccc(OCCN3CCOCC3)cc2)=[O+]1` [Compound 2], the Log10 reduction worked out at 2.13 log in assay [1] (setting [7]); 0.05 log in assay [1] (L−P+ (no light), 10 µM); 0.52 log in assay [2] (L−P+ (no light), 10 µM); 0.01 log in assay [3] (setting [8]); 0.04 log in assay [3] (L−P+ (no light)).

In the case of `C[N+]1(CCOc2ccc(C=CC3=CC(C=Cc4ccc(OCC[N+]5(C)CCOCC5)cc4)=[O+][B-](F)(F)O3)cc2)CCOCC1` [Compound 3], the “Log Red.” value in assay [1] (1 µM, 5 min irradiation 470 nm) is recorded as −0.01 log; in assay [1] (1 µM, 10 min irradiation 470 nm), 0.77 log; in assay [1] (setting [9]) it was 1.01 log; in assay [1] (1 µM, 20 min irradiation 470 nm), 1.42 log; in assay [1] (setting [10]), 3.37 log; in assay [1] (10 µM, 10 min irradiation 470 nm) it was 4.09 log. In addition, the “Log Red.” value was >5.40 log and >5.4 log in assay [1] (setting [11]); 0.83 log in assay [2] (1 µM, 5 min irradiation 470 nm); 1.57 log in assay [2] (setting [9]); 1.82 log in assay [2] (setting [12]); 1.15 log in assay [2] (10 µM, 5 min irradiation 470 nm); 3.08 log in assay [2] (setting [11]). The “Log Red.” value in assay [2] (setting [13]) turned out to be 4.53 log; in assay [4] (1 µM, 5 min irradiation 470 nm), 0.86 log; in assay [4] (setting [9]) it was 2.32 log; in assay [4] (setting [12]), 2.83 log; in assay [4] (1 µM, 30 min irradiation 470 nm (30 J/cm^2)) it was 3.32 log; in assay [4] (setting [10]) it was 4.29 log. For the same compound, the “Log Red.” value in assay [4] (10 µM, 15 min irradiation 470 nm) is 4.75 log; in assay [4] (setting [13]), above 4.85 log. For the same compound, the “irradiation time to complete eradication” value in assay [1] (10 µM, 470 nm LED) was determined as 15 min. For the same compound, the Log10 reduction is listed as above 5.54 log in assay [1] (setting [7]); −0.01 log in assay [1] (L−P+ (no light), 10 µM); above 4.46 log in assay [2] (setting [7]); 0.58 log in assay [2] (L−P+ (no light), 10 µM); −0.04 log in assay [3] (setting [8]); −0.09 log in assay [3] (L−P+ (no light)). Further, in assay [2] (1 µM, 470 nm LED), the “biological activity after irradiation” value was “no biological activity”.

The term IC50 denotes the concentration that gives 50% inhibition. Curcumin [reference compound]: the IC50 in assay [5] is around 7 µM. For the same compound, the “reduction in the survival of C. albicans” value in assay [6] is 4 log.

Values taken from PMC11478334, “Quaternized Curcumin Derivative—Synthesis, Physicochemical Characteristics, and Photocytotoxicity, Including Antibacterial Activity after Irradiation with Blue Light” (Molecules, 2024).
